The values below come from patent US8889677B2, “Substituted triazoles useful as mGlu5 receptor modulators” (Boehringer Ingellheim International GmbH, priority 2012, dated 2014).

SMILES strings stand for the structures.

T1 sequence (P41594 21-1212): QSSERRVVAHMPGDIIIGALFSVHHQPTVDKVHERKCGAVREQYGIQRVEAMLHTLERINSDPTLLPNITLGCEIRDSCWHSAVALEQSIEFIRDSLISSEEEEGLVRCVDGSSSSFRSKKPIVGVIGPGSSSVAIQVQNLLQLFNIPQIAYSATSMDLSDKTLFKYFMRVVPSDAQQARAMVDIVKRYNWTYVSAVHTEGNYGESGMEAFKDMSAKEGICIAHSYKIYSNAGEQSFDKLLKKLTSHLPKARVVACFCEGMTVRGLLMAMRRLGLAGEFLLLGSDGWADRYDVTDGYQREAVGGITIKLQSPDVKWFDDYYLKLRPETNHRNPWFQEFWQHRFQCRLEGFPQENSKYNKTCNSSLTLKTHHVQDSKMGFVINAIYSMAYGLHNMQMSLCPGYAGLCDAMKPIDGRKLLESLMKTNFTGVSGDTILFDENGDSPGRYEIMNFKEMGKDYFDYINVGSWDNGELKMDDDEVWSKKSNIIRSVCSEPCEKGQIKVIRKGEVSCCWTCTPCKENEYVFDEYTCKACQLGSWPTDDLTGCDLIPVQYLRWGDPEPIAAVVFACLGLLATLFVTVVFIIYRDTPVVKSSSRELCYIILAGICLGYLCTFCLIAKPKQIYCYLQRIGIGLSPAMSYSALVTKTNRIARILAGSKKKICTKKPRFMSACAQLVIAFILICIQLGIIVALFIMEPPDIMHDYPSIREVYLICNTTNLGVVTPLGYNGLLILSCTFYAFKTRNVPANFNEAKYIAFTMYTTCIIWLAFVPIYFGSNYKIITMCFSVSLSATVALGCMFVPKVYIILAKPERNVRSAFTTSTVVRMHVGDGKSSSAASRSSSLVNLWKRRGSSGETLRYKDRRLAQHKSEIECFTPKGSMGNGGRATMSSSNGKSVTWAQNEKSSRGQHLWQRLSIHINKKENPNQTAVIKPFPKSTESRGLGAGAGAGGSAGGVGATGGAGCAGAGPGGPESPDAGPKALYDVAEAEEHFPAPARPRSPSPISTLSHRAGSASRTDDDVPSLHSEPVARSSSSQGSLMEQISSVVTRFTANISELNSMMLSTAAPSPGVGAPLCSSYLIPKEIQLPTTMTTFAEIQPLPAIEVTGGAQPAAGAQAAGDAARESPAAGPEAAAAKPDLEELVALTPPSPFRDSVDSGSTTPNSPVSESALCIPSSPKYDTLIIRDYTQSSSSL

The test addresses T1, human recombinant mGluR5 (Homo sapiens, UniProt P41594).
T1 construct: expressed in transfected cells; host or cells: HEK 293 cell line cultured with tetracycline, hygromycin and geneticin; tetracycline removed 3-7 days before the assay
The test can be described thus: positive modulation of mGluR5, calcium based FLIPR assay in HEK 293 cells. Particulars: HEK 293 cell line expressing human recombinant mGluR5; EC50 of the modulation of the glutamate response (glutamate approx. 5% basal stimulation); peak height of Ca release fluorescence signal. How it is done:
The positive modulation of mGluR5 is measured in a HEK 293 cell line expressing human recombinant mGluR5 and is detected with calcium based FLIPR assay. The cells are cultured with DMEM supplemented with 10% FCS, 2 μg/mL tetracycline, 100 μg/mL hygromycin and 500 μg/mL gneticin. The cell culture media is exchanged for tetracycline-free cell culture media 3-7 days before the assay. One day before the assay the cell culture medium is exchanged to DMEM without glutamine and phenol red and supplemented with 10% FCS, 100 μg/mL hygromycin and 500 μg/mL geneticin. On the assay day, the medium of the subconfluent cultures is removed and the cells are detached by addition of 2.5 ml EDTA (0.02%) per 175 cm2 culture flask for 1 minute. The cells are resuspend in Ringer solution (140 mM NaCl, 5 mM KCl, 2.5 mM CaCl2, 1.5 mM MgCl2, 5 mM Glucose, 10 mM Hepes; adjusted to pH 7.4 with NaOH), pooled and Ringer solution added to adjust the volume to 50 mL. The cell suspension is centrifuged for […] at 1500 U/min (425 g). The supernatant is removed and the cells washed a second time with 50 ml fresh Ringer solution and centrifuged again as before. The supernatant is again removed and the pellet resuspended in Ringer solution to 1,000,000 cells/ml (1×10^6 cells/mL). The cells are plated onto BD BioCoat Poly-D-Lysine 384 well plates (20.000 cells/well; 20 μl/well). The lid covered plates are then incubated until use at 37° C./10% CO2. For dye loading, 20 μl of Calcium-4 assay kit solution (prepared according to the manufacturer's description in Ringer solution) are added to the cells and the plates are incubated for 80 min 37° C. and then 10 min at room temperature.
Controls, Compound Dilution and Assay Execution:
Each assay plate contained wells with “high” and “low” controls:
Low controls 1% DMSO/ringer solution+basal glutamate activation (defined as 100% CTL).
High controls 10 μM CDPPB+basal glutamate activation (defined as 200% CTL).
Test compounds are dissolved and diluted in DMSO to 100-fold the desired concentrations. In a second step, the compounds are diluted in Ringer solution such that the compounds are 4-fold more concentrated than the desired final assay concentration. The final DMSO concentration was 1%.
20 μl of each compound solution are then transferred to the assay plate and the Ca2+ kinetic is measured to determine any intrinsic compound activity. After 5 min incubation in the FLIPR device, the second stimulation with 20 μl of glutamate in Ringer solution (glutamate concentration adjusted to approximately 5% basal stimulation of the maximal possible glutamate effect) is added and the kinetic Ca2+ response of the wells was measured for the modulation effect.
The peak height of the Ca release related fluorescence signal (9-66) is used for the EC50. The EC50 of the modulation is calculated over a nonlinear regression with GraphPad Prism (Table 1).
Consider `Cc1cc(C#N)nc(N2CCN(C(=O)Cn3nc(-c4ccc(F)cc4)nc3-c3ccc(F)cc3)CC2)n1` [Example 07.03.15.], for which the EC50 (commonly the concentration needed to bring the measured effect to its halfway point) came out at 574 nM. For `CN(C)c1ccnc(N2CCN(C(=O)Cn3nc(-c4ccc(F)cc4)nc3-c3ccc(F)cc3)CC2)n1` [Example 07.03.16.] the value was 66 nM; for `CN(C)c1ccnc(N2CCN(C(=O)Cn3nc(-c4ccc(F)cc4)nc3-c3ccc(F)cc3)CC2)c1` [Example 07.03.17.], 601 nM. On to `COc1cncc(N2CCN(C(=O)Cn3nc(-c4ccc(F)cc4)nc3-c3ccc(F)cc3)CC2)n1` [Example 07.03.18.], for which the EC50 was 179 nM. The figure for `COc1nccc(N2CCN(C(=O)Cn3nc(-c4ccc(F)cc4)nc3-c3ccc(F)cc3)CC2)n1` [Example 07.03.19.] is 440 nM.

On to `O=C(Cn1nc(-c2ccc(F)cc2)nc1-c1ccc(F)cc1)N1CCN(c2ccc(Br)cn2)CC1` [Example 07.03.20.], for which the EC50 is 467 nM. As for `O=C(Cn1nc(-c2ccc(F)cc2)nc1-c1ccc(F)cc1)N1CCN(c2nccc(C(F)(F)F)n2)CC1` [Example 07.03.21.], the EC50 is 278 nM.

Turning to `CN(C)c1nccc(N2CCN(C(=O)Cn3nc(-c4ccc(F)cc4)nc3-c3ccc(F)cc3)CC2)n1` [Example 07.03.22.], the EC50 is 476 nM. With `CN(C)c1cc(N2CCN(C(=O)Cn3nc(-c4ccc(F)cc4)nc3-c3ccc(F)cc3)CC2)ccn1` [Example 07.03.23.], the EC50 was determined as 1010 nM. The figure for `COc1cc(N2CCN(C(=O)Cn3nc(-c4ccc(F)cc4)nc3-c3ccc(F)cc3)CC2)ccn1` [Example 07.03.24.] is 254 nM; for `CCc1cc(N2CCN(C(=O)Cn3nc(-c4ccc(F)cc4)nc3-c3ccc(F)cc3)CC2)ncn1` [Example 07.03.26.] it is 177 nM. For `CCc1cc(N2CCN(C(=O)Cn3nc(-c4ccc(F)cc4)nc3-c3ccc(F)cc3)CC2)nc(Cl)n1` [Example 07.03.27.] the value was 1210 nM; for `Nc1cc(N2CCN(C(=O)Cn3nc(-c4ccc(F)cc4)nc3-c3ccc(F)cc3)CC2)ncn1` [Example 07.03.28.], 319 nM; for `COc1cnc(N2CCN(C(=O)Cn3nc(-c4ccc(F)cc4)nc3-c3ccc(F)cc3)CC2)nc1` [Example 07.04.001., 2-(3,5-Bis-(4-fluoro-phenyl)-(1,2,4)triazol-1-yl)-1-(4-(5-methoxy-pyrimidin-2-yl)-piperazin-1-yl)-ethanone], 25 nM. The figure for `COc1ccc(Cl)cc1N1CCN(C(=O)Cn2nc(-c3ccc(F)cc3)nc2-c2ccc(F)cc2)CC1` [Example 07.04.002.] is 2000 nM. As for `O=C(Cn1nc(-c2ccc(F)cc2)nc1-c1ccc(F)cc1)N1CCN(c2ccncn2)CC1` [Example 07.04.003.], the EC50 was determined as 259 nM. Turning to `O=C(Cn1nc(-c2ccc(F)cc2)nc1-c1ccc(F)cc1)N1CCN(c2cccnc2)CC1` [Example 07.04.004.], the EC50 worked out at 600 nM. For `O=C(Cn1nc(-c2ccc(F)cc2)nc1-c1ccc(F)cc1)N1CCN(c2cc3ccccc3cn2)CC1` [Example 07.04.005.] the value was 400 nM; for `O=C(Cn1nc(-c2ccc(F)cc2)nc1-c1ccc(F)cc1)N1CCN(c2nccc3ccccc23)CC1` [Example 07.04.006.], 899 nM. The figure for `N#Cc1ccccc1N1CCN(C(=O)Cn2nc(-c3ccc(F)cc3)nc2-c2ccc(F)cc2)CC1` [Example 07.04.007.] is 1350 nM. `O=C(Cn1nc(-c2ccc(F)cc2)nc1-c1ccc(F)cc1)N1CCN(c2cnccn2)CC1` [Example 07.04.008.]: the EC50 amounted to 117 nM.

Consider `O=C(Cn1nc(-c2ccc(F)cc2)nc1-c1ccc(F)cc1)N1CCN(c2ccc(Cl)nn2)CC1` [Example 07.04.009.], for which the EC50 is 166 nM. Regarding `O=C(Cn1nc(-c2ccc(F)cc2)nc1-c1ccc(F)cc1)N1CCN(c2ccccc2O)CC1` [Example 07.04.010.], the EC50 amounted to 1200 nM. For `N#Cc1ccc(N2CCN(C(=O)Cn3nc(-c4ccc(F)cc4)nc3-c3ccc(F)cc3)CC2)nc1` [Example 07.04.11.] the value was 1570 nM; for `O=C(Cn1nc(-c2ccc(F)cc2)nc1-c1ccc(F)cc1)N1CCN(c2ccc(Cl)cn2)CC1` [Example 07.04.12.], 176 nM. The figure for `O=C(Cn1nc(-c2ccc(F)cc2)nc1-c1ccc(F)cc1)N1CCN(c2ccccc2F)CC1` [Example 07.04.13.] is 1210 nM; for `COc1cccc(N2CCN(C(=O)Cn3nc(-c4ccc(F)cc4)nc3-c3ccc(F)cc3)CC2)c1` [Example 07.04.014.] it is 467 nM; for `O=C(Cn1nc(-c2ccc(F)cc2)nc1-c1ccc(F)cc1)N1CCN(c2cc(Cl)ccn2)CC1` [Example 07.04.015.] it is 364 nM. The figure for `COc1cc(N2CCN(C(=O)Cn3nc(-c4ccc(F)cc4)nc3-c3ccc(F)cc3)CC2)ncn1` [Example 07.04.016.] is 62 nM; for `COc1cnnc(N2CCN(C(=O)Cn3nc(-c4ccc(F)cc4)nc3-c3ccc(F)cc3)CC2)c1` [Example 07.04.017.] it is 421 nM. On to `O=C(Cn1nc(-c2ccccc2)nc1-c1ccccc1)N1CCN(c2ncccn2)CC1` [Example 07.04.018.], for which the EC50 is 200 nM. For `COc1cc(N2CCN(C(=O)Cn3nc(-c4ccccc4)nc3-c3ccccc3)CC2)ncn1` [Example 07.04.019.] the value was 1090 nM; for `COc1ccc(-c2nc(C3CCCCC3)n(CC(=O)N3CCN(c4ncccn4)CC3)n2)c(F)c1` [Example 07.04.020.], 388 nM; for `COc1ccc(-c2nc(C3CCCCC3)n(CC(=O)N3CCN(c4cc(C)ccn4)CC3)n2)c(F)c1` [Example 07.04.021.], 647 nM. The figure for `COc1ccc(-c2nc(C3CCCCC3)n(CC(=O)N3CCN(c4ccccn4)CC3)n2)c(F)c1` [Example 07.04.022.] is 1040 nM; for `O=C(Cn1nc(-c2cccc(F)c2)nc1-c1cccc(F)c1)N1CCN(c2ncccn2)CC1` [Example 07.04.023.] it is 370 nM. With `Cc1ccnc(N2CCN(C(=O)Cn3nc(-c4cccc(F)c4)nc3-c3cccc(F)c3)CC2)c1` [Example 07.04.024.], the EC50 worked out at 945 nM.

For the compound `COc1cccc(-c2nc(-c3ccc(F)cc3)nn2CC(=O)N2CCN(c3cc(C)ccn3)CC2)c1` [Example 07.04.025.], the EC50 was 868 nM. Take `COc1cccc(-c2nc(-c3ccc(F)cc3)nn2CC(=O)N2CCN(c3ncccn3)CC2)c1` [Example 07.04.026.]: the EC50 amounted to 236 nM. For `COc1cccc(-c2nc(-c3ccc(F)cc3)n(CC(=O)N3CCN(c4cc(C)ccn4)CC3)n2)c1` [Example 07.04.027.] the value was 38 nM; for `COc1cccc(-c2nc(-c3ccc(F)cc3)n(CC(=O)N3CCN(c4ncccn4)CC3)n2)c1` [Example 07.04.028.], 30 nM; for `O=C(Cn1nc(-c2ccc(F)cc2)nc1C1CCCCC1)N1CCN(c2ccccn2)CC1` [Example 07.04.029.], 1560 nM.

For the compound `Cc1ccnc(N2CCN(C(=O)Cn3nc(-c4ccc(F)cc4)nc3C3CCCCC3)CC2)c1` [Example 07.04.030.], the 50% effective concentration (EC50) is 1420 nM. The figure for `O=C(Cn1nc(-c2ccc(F)cc2)nc1C1CCCCC1)N1CCN(c2ncccn2)CC1` [Example 07.04.031.] is 661 nM. The figure for `COc1ccc(-c2nc(-c3ccc(F)cc3)n(CC(=O)N3CCN(c4cc(C)ccn4)CC3)n2)cc1` [Example 07.04.032.] is 39 nM; for `COc1ccc(-c2nc(-c3ccc(F)cc3)n(CC(=O)N3CCN(c4ncccn4)CC3)n2)cc1` [Example 07.04.033.] it is 37 nM; for `COc1ccc(-c2nc(-c3ccc(F)cc3)n(CC(=O)N3CCN(c4cc(OC)ncn4)CC3)n2)cc1` [Example 07.04.034.] it is 52 nM. The figure for `COc1ccc(-c2nc(-c3ccc(F)cc3)n(CC(=O)N3CCN(c4ccccn4)CC3)n2)cc1` [Example 07.04.035.] is 40 nM; for `COc1ccc(-c2nc(-c3ccc(F)cc3)n(CC(=O)N3CCN(c4ncc(Br)cn4)CC3)n2)cc1` [Example 07.04.036.] it is 32 nM. As for `COc1ccc(-c2nc(-c3ccc(F)cc3)n(CC(=O)N3CCN(c4cccnn4)CC3)n2)cc1` [Example 07.04.037.], the EC50 was 114 nM.
